From patent publication US20240018105A1, “TROPOLONE DERIVATIVES AND TAUTOMERS THEREOF FOR IRON REGULATION IN ANIMALS” (Kinesid Therapeutics, Inc., priority 2019, published 2024)

Tests used:
[1] = test system: DMT1-deficient Caco-2 cells; test: shDMT1-Caco2 55Fe transport assay; assay type: cell-based; details: Caco-2
Source text: Assay 2: shDMT1-Caco2 ^55Fe Transport Assay to Assess Ligand Ability in Transporting Fe (III)
Cells: DMT1-deficient Caco-2 cells (alias: “shDMT1,” or “4A” cells) were from Grillo et al. Science, 2017, and were cryopreserved in liquid nitrogen prior to use.
Reagents and supplies: ^55FeCl3 was obtained from PerkinElmer (Boston, MA). Iron(III) chloride (FeCl3) hexahydrate was obtained from Sigma. Dulbecco's Modified Eagle Medium (DMEM), fetal bovine serum (FBS), L-glutamine, MEM nonessential amino acids, penicillin-streptomycin, G418, formic acid, methanol, high-purity water, ammonium formate, dimethyl sulfoxide (DMSO) were purchased from Fisher Scientific. Propranolol, atenolol and carbutamide were obtained from Sigma-Aldrich Chemical Company (St Louis, MO). Scintillation cocktail was obtained from Research Product International Co. (Mount Prospect, IL). Stericup filter system (PES membrane, 0.22 um pore size) was purchased from Fisher Scientific. Coming item #3378 24-well transwell insert plates. Test articles: known compounds hinokitiol and deferiprone were purchased from Sigma. They are tested side by side with the small molecule ligands disclosed in this application. DMSO stocks (10 mM, which is 1,000× of the 10 μM dose level) of hinokitiol or test articles were prepared. A stock solution of 25 mM deferiprone in DMSO was prepared. The DMSO stock solutions were stored at −20° C. or below when not in use.
The growth medium was prepared according to the following table
Apical media (serum free DMEM, 10 mM MES, pH 6.5) was prepared. Apical master mix media was prepared fresh with the addition of 200 nM ^55Fe before each experiment. For the negative control propranolol and atenolol wells, 200 nM of non-radioactive iron was used.
The basolateral media was serum-free DMEM, 10 mM HEPES, 2% bovine serum albumin (BSA), pH 7.4.
For each experiment, cells were seeded into the 24-well transwell plates (0.5 mL of 50,000 cells/mL) with growth media. The basolateral companion plate was loaded with 1 mL of growth media. After 12-24 hr, both the apical and basolateral chamber were replaced with growth media. The apical media was changed 3× per week for 21-28 days, including a media change exactly 48 hr before the assay date.
On the assay day, the TEER values were measured and the average TEER values was obtained. Individual wells with TEER vaule >35% lower than the average of all wells were excluded. For the qualified wells, the apical layer (twice) and basolaterial (once) chambers were washed with PBS. The basolateral companion plate was then filled with 1 mL of basolateral media. Via addition down the side-wall of the apical well, 300 μL per well of the apical assay master mix, with the indicated dose level of test article, was added. Each dose was tested in triplicate. The plates were incubated (5% CO2 and 90% humidity at 37° C.) for the indicated timepoints. At each indicated timepoint, the basolateral supernatant was gently mixed via pipetting, and 200 μL of the basolateral supernatant was transferred to scintillation vials. To each scintillation counting vial, 5 mL of scintillation cocktail fluid was added. For each scintillation vial, the radioactivity (CPM) was determined with liquid scintillation counter LS6500. The counting time per vial was 5 min.
All raw CPM values are divided by the average value of blank DMSO solution to give a fold of change above the DMSO value. The mean and standard deviation of each compound at each concentration level and at each time point measured was calculated to give the fold change (fc) value.
For rank order compounds, the fc value of a ligand at 4 h time point is further divided by the fold change (fc) value of hinokitiol (a positive control compound) at an equimolar concentration to arrive at the FC (normalized fold of change) value. Data reported in Tables 1 and 2 is 4 hr time point FC=fc-ligand @ 3 uM/fc-hino @ 3 uM, and FC hino=1.

[2] = Ligand facilitated Fe(III) efflux from liposomes; details: 10 uM ligand concentration; Table 1
Protocol: Assay 1: Ligand Facilitated Fe(III) Efflux from Liposomes Preparation of POPC (1-palmitoyl-2-oleoyl-sn-glycero-3-phosphocholine): Cholesterol Liposomes:
A 1M buffer solution of MES and Tris was prepared by dissolving 121.14 grams of Tris base and 213.25 grams of MES hydrate in 500 mL of MilliQ water and adjusted to pH7.0 using an […] HCl solution before bringing the total volume of the solution to 1 L. A 500 mM solution of FeCl3 was prepared by dissolving 0.811 grams of anhydrous FeCl3 in 10 mL of a 0.1M H2SO4 aqueous solution. Inside buffer is prepared in a 50 mL falcon tube, which was added with 25 mL of MilliQ water, 1.61 g of sodium citrate, 1.5 mL of the above FeCl3 solution, and 2.5 mL of the 1M MES/Tris HCl buffer (pH=7.0), and finally additional MilliQ H2O to bring to a 50 mL final volume.
Lipid solution is prepared by dissolving 206.9 mg of POPC (1-palmitoyl-2-oleoyl-sn-glycero-3-phosphocholine) and 8.6 mg of cholesterol in 10 mL of ethanol.
The lipids solution and the inside buffer solution are independently loaded into 10 mL luer lock syringes for loading into a virgin cartridge on a Precision Nanosystems NanoAssembler to prepare unilamaller liposomes with the following parameters: 7.5 mL total volume, 1.5:1 mixing ratio of inside buffer:lipids solution, 8 mL/min flow rate, ambient temperature, 0.35 mL start waste, and 0.05 mL of end waste. 7.5 mL of liposomes is harvested for purification on a 6-inch long, 1-inch diameter Sephadex G-50 column wetted in 600 mM sodium ascorbate and 50 mM MES/Tris HCl pH 7.0 buffer. This buffer also serves as the column running buffer. The crude liposome solution is carefully loaded with minimal volume of running buffer above the top of the Sphadex, allowed to enter the matrix, and the column is run with the continued addition of running buffer. The eluting liposomes, observed as a milky and turbid solution, are collected until free iron begins to elute (observed as a deep purple color) and the fractions are pooled for phosphorus quantitation.
Phosphorus content of eluted liposomes was determined by the process outlined below. 10 uL of liposome elution and a running buffer blank are added to a 5 mL glass vial containing 450 uL of a 8.9 M aqueous H2SO4 solution, the mixture is heated to 225° C. for 25 minutes in an aluminum heat block to hydrolyze POPC and cooled for 5 minutes. 200 ul of a 30% hydrogen peroxide aqueous solution is added to each vial and heated to 225° C. for 25 minutes. After cooling, the phosphorus content was determined using an Abcam Phosphate Assay kit, with buffer subtracted phosphorus levels determined against a standard curve of phosphate included in the kit. Liposomes were diluted to 1 mM phosphate in Running Buffer for use in assays after accounting for dilutions made during phospholipid digestion.
Determination of the rate at which a small molecule ligand liberates (transport) Ferric iron from liposomes is performed in clear bottom black 384-well plates on a Spectramax i3x set to read the absorbance at 562 nm in the kinetic mode every 60 seconds for 120 minutes. 1 uL of serially diluted DMSO stock solution of a small molecule ligand is added to wells in triplicate to give the final concentrations of 40, 20, 10, 5, 2.5, and 1.25 uM of the ligand at 80 μL final volume, followed by addition of 1 μL of 100 mM Ferrozine in water to give a final concentration of 1 mM ferrozine. 78 uL of liposomes diluted to 1 mM phosphorus in running buffer is added to wells as quickly as possible (using a digital repeater mulchannel pipette) with the kinetic read initiated as rapidly as possible after addition of liposomes to all wells. Typically, eight compounds at six concentrations are tested in triplicate simultaneously.
Upon completion of kinetic read, the data for individual reads is fitted to a single phase association regression with the equation Y=(Y0−YMax)^(−kX)+YMax, with Y being the 562 absorbance value and X being time in minutes. […]

| Compound | Caco2 shDMT1 transport FC @ 3 μM, 4h [1] | Liposome Fe transport kefflux at 10 10 μM [2] |
| --- | --- | --- |
| O=c1cccc(-c2cncc(F)c2F)cc1O [Ex.2, 4-(4,5-difluoropyridin-3-yl)-2-hydroxycyclohepta-2,4,6-trien-1-one] | 0.01-0.5 | 0.1-5 |
| COc1cc(-c2cccc(=O)c(O)c2)c(F)cn1 [Ex.6, 4-(5-fluoro-2-methoxypyridin-4-yl)-2-hydroxycyclohepta-2,4,6-trien-1-one] | 0.01-0.5 | 7.5-10 |
| Cc1cnccc1-c1cccc(=O)c(O)c1 [Ex.9, 2-hydroxy-4-(3-methylpyridin-4-yl)cyclohepta-2,4,6-trien-1-one] | 0.01-0.5 | 0.1-5 |
| COc1cncc(-c2cccc(=O)c(O)c2)c1 [Ex.10, 2-hydroxy-4-(5-methoxypyridin-3-yl)cyclohepta-2,4,6-trien-1-one] | 0.01-0.5 | 0.1-5 |
| O=c1cccc(-c2cccnc2)cc1O [Ex.11, 2-hydroxy-4-(pyridin-3-yl)cyclohepta-2,4,6-trien-1-one] | 0.01-0.5 | 0.1-5 |
| COc1cc(-c2cccc(=O)c(O)c2)cnc1OC [Ex.12, 4-(5,6-dimethoxypyridin-3-yl)-2-hydroxycyclohepta-2,4,6-trien-1-one] | 0.5-1 | 7.5-10 |
| O=c1ccc(-c2cncc(F)c2)ccc1O [Ex.15, 5-(5-fluoropyridin-3-yl)-2-hydroxycyclohepta-2,4,6-trien-1-one] | 0.01-0.5 | 5-7.5 |
| O=c1cccc(-c2cncc(Cl)c2)cc1O [Ex.17, 4-(5-chloropyridin-3-yl)-2-hydroxycyclohepta-2,4,6-trien-1-one] | 0.01-0.5 | 5-7.5 |
| Cc1ncc(-c2ccc(O)c(=O)cc2)c(C)n1.O=C(O)C(F)(F)F [Ex.35, 5-(2,4-dimethylpyrimidin-5-yl)-2-hydroxycyclohepta-2,4,6-trien-1-one] | 0.01-0.5 | 7.5-10 |
| COc1nccc(-c2cccc(=O)c(O)c2)n1.O=C(O)C(F)(F)F [Ex.39, 2-hydroxy-4-(2-methoxypyrimidin-4-yl)cyclohepta-2,4,6-trien-1-one] | 0.01-0.5 | 0.1-5 |

Further lines, with some results ahead:

| Caco2 shDMT1 transport FC @ 3 μM, 4h [1] | Compound | Liposome Fe transport kefflux at 10 10 μM [2] |
| --- | --- | --- |
| 0.01-0.5 | N#Cc1cncc(-c2cccc(=O)c(O)c2)c1 [Ex.4, 5-(6-hydroxy-5-oxocyclohepta-1,3,6-trien-1-yl)nicotinonitrile] | 0.1-5 |
| 0.01-0.5 | COc1cc(-c2cccc(=O)c(O)c2)ccn1 [Ex.8, 2-hydroxy-4-(2-methoxypyridin-4-yl)cyclohepta-2,4,6-trien-1-one] | 7.5-10 |
| 0.01-0.5 | Cc1ccc(-c2cccc(=O)c(O)c2)cn1 [Ex.18, 2-hydroxy-4-(6-methylpyridin-3-yl)cyclohepta-2,4,6-trien-1-one] | 0.1-5 |
| 0.01-0.5 | COc1ccc(-c2cccc(=O)c(O)c2)cn1 [Ex.19, 2-hydroxy-4-(6-methoxypyridin-3-yl)cyclohepta-2,4,6-trien-1-one] | 0.1-5 |
| 0.01-0.5 | O=c1ccccc(-c2cncc(F)c2)c1O [Ex.24, 2-(5-fluoropyridin-3-yl)-7-hydroxycyclohepta-2,4,6-trien-1-one] | 7.5-10 |
| 0.01-0.5 | O=c1cccc(-c2cncnc2)cc1O [Ex.29, 2-hydroxy-4-(pyrimidin-5-yl)cyclohepta-2,4,6-trien-1-one] | 5-7.5 |
| 0.01-0.5 | COc1ncc(-c2cccc(=O)c(O)c2)cn1 [Ex.30, 2-hydroxy-4-(2-methoxypyrimidin-5-yl)cyclohepta-2,4,6-trien-1-one] | 0.1-5 |
| 0.01-0.5 | Cc1ncc(-c2ccc(O)c(=O)cc2)cn1 [Ex.33, 2-hydroxy-5-(2-methylpyrimidin-5-yl)cyclohepta-2,4,6-trien-1-one] | 0.1-5 |
| 0.01-0.5 | Cc1ncc(-c2ccccc(=O)c2O)cn1 [Ex.34, 2-hydroxy-3-(2-methylpyrimidin-5-yl)cyclohepta-2,4,6-trien-1-one] | 0.1-5 |
| 0.01-0.5 | Cc1ncc(-c2ccccc(=O)c2O)c(C)n1 [Ex.36, 3-(2,4-dimethylpyrimidin-5-yl)-2-hydroxycyclohepta-2,4,6-trien-1-one] | 5-7.5 |
| 0.01-0.5 | COc1nccc(-c2ccc(O)c(=O)cc2)n1.O=C(O)C(F)(F)F [Ex.38, 2-hydroxy-5-(2-methoxypyrimidin-4-yl)cyclohepta-2,4,6-trien-1-one] | 0.1-5 |
